Reference: US8633200B2, “Inhibitors of human immunodeficiency virus replication” (priority 2010, dated 2014)
Structures can show the parent of a compound that is named as a salt. Where two headings read alike, the source gives them in different places.

Test system: recombinant NL-Rluc virus (NL4-3 with Renilla Luciferase gene) in MT-2 cells
Test: Inhibition of HIV replication (NL-Rluc luciferase reporter virus, MT-2 cells)
Type: cell-based, human immunodeficiency virus (HIV)
Settings: NL43, 120 h

| Compound | EC50 (read-out: Activity) | EC50 (read-out: EC50 μM) |
| --- | --- | --- |
| Cc1nc2cc(-c3ccccc3)nn2c(-c2ccc(C)c3ccccc23)c1C(OC(C)(C)C)C(=O)O (stereo not drawn) [Example 87] | > 1 µM | – |
| Cc1nc2c(Cl)c(C)nn2c(-c2cc(F)c3c(c2C)CCCO3)c1C(OC(C)(C)C)C(=O)O (stereo not drawn) [Example 143, 2-(tert-Butoxy)-2-(3-chloro-7-(8-fluoro-5-methylchroman-6-yl)-2,5-dimethylpyrazolo[1,5-a]pyrimidin-6-yl)acetic acid] | 0.1 to 1 µM | – |
| Cc1ccc(-c2cc3nc(C)c(C(OC(C)(C)C)C(=O)O)c(-c4cc(F)c5c(c4C)CCCO5)n3n2)cc1 (stereo not drawn) [Example 46, 2-tert-Butoxy-2-(7-(8-fluoro-5-methylchroman-6-yl)-5-methyl-2-p-tolylpyrazolo[1,5-a]pyrimidin-6-yl)acetic acid, TFA salt] | < 0.1 µM | 0.09 µM |
| Cc1nc2cc(-c3ccccc3)nn2c(-c2ccc3c(c2)CCC3)c1C(OC(C)(C)C)C(=O)O (stereo not drawn) [Example 2] | > 1 µM | – |
| Cc1nc2c(-c3ccc4c(cnn4C)c3)c(-c3ccccc3)nn2c(-c2cc(F)c3c(c2C)CCCO3)c1[C@H](OC(C)(C)C)C(=O)O [Example 142, (2S)-2-(tert-Butoxy)-2-(7-(8-fluoro-5-methylchroman-6-yl)-5-methyl-3-(1-methyl-1H-indazol-5-yl)-2-phenylpyrazolo[1,5-a]pyrimidin-6-yl)acetic acid] | 0.1 to 1 µM | – |
| Cc1nc2c(-c3ccccc3)cnn2c(-c2cc(F)c3c(c2C)CCCO3)c1C(OC(C)(C)C)C(=O)O (stereo not drawn) [Example 44, 2-tert-Butoxy-2-(7-(8-fluoro-5-methylchroman-6-yl)-5-methyl-3-phenylpyrazolo[1,5-a]pyrimidin-6-yl)acetic acid, TFA salt] | > 1 µM | 3 µM |
| Cc1nc2cc(-c3ccccc3)nn2c(-c2ccc3c(c2)CCCO3)c1C(OC(C)(C)C)C(=O)O (stereo not drawn) [Example 3] | 0.1 to 1 µM | – |
| Cc1nc2c(-c3cccc(Cl)c3)cnn2c(-c2ccc3c(c2)CCCO3)c1C(OC(C)(C)C)C(=O)O (stereo not drawn) [Example 133, 2-tert-Butoxy-2-(3-(3-chlorophenyl)-(7-chroman-6-yl)-5-methylpyrazolo[1,5-a]pyrimidin-6-yl)acetic acid] | 0.1 to 1 µM | – |
| Cc1nc2cc(-c3ccccc3)nn2c(-c2ccc(F)cc2Cl)c1C(OC(C)(C)C)C(=O)O (stereo not drawn) [Example 90] | > 1 µM | – |
| Cc1nc2c(-c3cc(F)c4c(c3C)CCCO4)c(-c3ccccc3)nn2c(-c2cc(F)c3c(c2C)CCCO3)c1C(OC(C)(C)C)C(=O)O (stereo not drawn) [Example 137, 2-(3,7-Bis(8-fluoro-5-methylchroman-6-yl)-5-methyl-2-phenylpyrazolo[1,5-a]pyrimidin-6-yl)-2-(tert-butoxy)acetic acid] | > 1 µM | – |
| COc1ccc(-c2cccc(-c3cc4nc(C)c([C@H](OC(C)(C)C)C(=O)O)c(-c5cc(F)c6c(c5C)CCCO6)n4n3)c2)cc1 [Example 127, (2S)-2-(tert-Butoxy)-2-(7-(8-fluoro-5-methylchroman-6-yl)-2-(4′-methoxy-[1,1′-biphenyl]-3-yl)-5-methylpyrazolo[1,5-a]pyrimidin-6-yl)acetic acid, TFA salt] | < 0.1 µM | – |
| Cc1nc2cc(-c3cccc(-c4ccnc(N5CCN(C)CC5)c4)c3)nn2c(-c2cc(F)c3c(c2C)CCCO3)c1[C@H](OC(C)(C)C)C(=O)O [Example 175, (2S)-2-(tert-Butoxy)-2-(7-(8-fluoro-5-methylchroman-6-yl)-5-methyl-2-(3-(2-(4-methylpiperazin-1-yl)pyridin-4-yl)phenyl)pyrazolo[1,5-a]pyrimidin-6-yl)acetic acid] | < 0.1 µM | – |
| COc1ccc(-c2c(C(OC(C)(C)C)C(=O)O)c(C)nc3cc(-c4ccccc4)nn23)c(Cl)c1 (stereo not drawn) [Example 52] | > 1 µM | – |
| Cc1cc(-c2cccc(-c3cc4nc(C)c([C@H](OC(C)(C)C)C(=O)O)c(-c5cc(F)c6c(c5C)CCCO6)n4n3)c2)ccn1 [Example 170, (2S)-2-(tert-Butoxy)-2-(7-(8-fluoro-5-methylchroman-6-yl)-5-methyl-2-(3-(2-methylpyridin-4-yl)phenyl)pyrazolo[1,5-a]pyrimidin-6-yl)acetic acid] | < 0.1 µM | – |
| Cc1nc2cc(-c3ccccc3)nn2c(-c2cccc3ncccc23)c1C(OC(C)(C)C)C(=O)O (stereo not drawn) [Example 71] | > 1 µM | – |
| Cc1nc2cc(-c3cccc(-c4cnn(-c5ccccc5)c4C)c3)nn2c(-c2cc(F)c3c(c2C)CCCO3)c1[C@H](OC(C)(C)C)C(=O)O [Example 174, (2S)-2-(tert-Butoxy)-2-(7-(8-fluoro-5-methylchroman-6-yl)-5-methyl-2-(3-(5-methyl-1-phenyl-1H-pyrazol-4-yl)phenyl)pyrazolo[1,5-a]pyrimidin-6-yl)acetic acid] | < 0.1 µM | – |
| Cc1nc2c(-c3cccc(OCc4ccc(F)cc4)c3)c(-c3ccccc3)nn2c(-c2cc(F)c3c(c2C)CCCO3)c1[C@H](OC(C)(C)C)C(=O)O [Example 141, (2S)-2-(tert-Butoxy)-2-(7-(8-fluoro-5-methylchroman-6-yl)-3-(3-((4-fluorobenzyl)oxy)phenyl)-5-methyl-2-phenylpyrazolo[1,5-a]pyrimidin-6-yl)acetic acid] | > 1 µM | 3.3 µM |
| Cc1cc(-c2cccc(-c3cc4nc(C)c([C@H](OC(C)(C)C)C(=O)O)c(-c5cc(F)c6c(c5C)CCCO6)n4n3)c2)ccc1F [Example 165, (2S)-2-(tert-Butoxy)-2-(2-(4′-fluoro-3′-methyl-[1,1′-biphenyl]-3-yl)-7-(8-fluoro-5-methylchroman-6-yl)-5-methylpyrazolo[1,5-a]pyrimidin-6-yl)acetic acid] | < 0.1 µM | – |

| Compound | EC50 (read-out: Activity) | EC50 (read-out: EC50 μM) |
| --- | --- | --- |
| Cc1nc2cc(-c3cccc(C(=O)NCc4ccccc4)c3)nn2c(-c2cc(F)c3c(c2C)CCCO3)c1C(OC(C)(C)C)C(=O)O (stereo not drawn) [Example 111, 2-(2-(3-(Benzylcarbamoyl)phenyl)-7-(8-fluoro-5-methylchroman-6-yl)-5-methylpyrazolo[1,5-a]pyrimidin-6-yl)-2-tert-butoxyacetic acid, TFA salt] | 0.1 to 1 µM | – |
| Cc1nc2cc(-c3cccc(-c4ccc5c(cnn5C)c4)c3)nn2c(-c2cc(F)c3c(c2C)CCCO3)c1[C@H](OC(C)(C)C)C(=O)O [Example 120, (2S)-2-(tert-Butoxy)-2-(7-(8-fluoro-5-methylchroman-6-yl)-5-methyl-2-(3-(1-methyl-1H-indazol-5-yl)phenyl)pyrazolo[1,5-a]pyrimidin-6-yl)acetic acid] | < 0.1 µM | 0.002 µM |
| Cc1nc2cc(-c3ccccc3)nn2c(-c2ccc3c(ccn3C)c2)c1C(OC(C)(C)C)C(=O)O (stereo not drawn) [Example 36] | 0.1 to 1 µM | – |
| Cc1ccccc1-c1cc2nc(C)c(C(OC(C)(C)C)C(=O)O)c(-c3cc(F)c4c(c3C)CCCO4)n2n1 (stereo not drawn) [Example 98, 2-tert-Butoxy-2-(7-(8-fluoro-5-methylchroman-6-yl)-5-methyl-2-o-tolylpyrazolo[1,5-a]pyrimidin-6-yl)acetic acid, TFA salt] | > 1 µM | – |
| Cc1nc2cc(-c3ccccc3)nn2c(-c2ccc(Cl)c(F)c2)c1C(OC(C)(C)C)C(=O)O (stereo not drawn) [Example 86] | > 1 µM | – |
| Cc1nc2cc(-c3cccc(-c4cncc(F)c4)c3)nn2c(-c2cc(F)c3c(c2C)CCCO3)c1[C@H](OC(C)(C)C)C(=O)O [Example 171, (2S)-2-(tert-Butoxy)-2-(7-(8-fluoro-5-methylchroman-6-yl)-2-(3-(5-fluoropyridin-3-yl)phenyl)-5-methylpyrazolo[1,5-a]pyrimidin-6-yl)acetic acid] | < 0.1 µM | – |
| Cc1nc2cc(-c3ccc4c(c3)CCCC4)nn2c(-c2cc(F)c3c(c2C)CCCO3)c1[C@H](OC(C)(C)C)C(=O)O [Example 150, (2S)-2-(tert-Butoxy)-2-(7-(8-fluoro-5-methylchroman-6-yl)-5-methyl-2-(5,6,7,8-tetrahydronaphthalen-2-yl)pyrazolo[1,5-a]pyrimidin-6-yl)acetic acid] | < 0.1 µM | – |
| Cc1ccc(-c2c(C(OC(C)(C)C)C(=O)O)c(C)nc3cc(-c4ccccc4)nn23)cc1 (stereo not drawn) [Example 41, 2-tert-Butoxy-2-(5-methyl-2-phenyl-7-p-tolylpyrazolo[1,5-a]pyrimidin-6-yl)acetic acid, TFA salt] | 0.1 to 1 µM | 0.6 µM |
| Cc1nc2cc(-c3ccccc3)nn2c(-c2ccc(O)cc2)c1C(OC(C)(C)C)C(=O)O (stereo not drawn) [Example 20] | > 1 µM | – |
| Cc1cc(F)ccc1-c1cccc(-c2cc3nc(C)c([C@H](OC(C)(C)C)C(=O)O)c(-c4cc(F)c5c(c4C)CCCO5)n3n2)c1 [Example 166, (2S)-2-(tert-Butoxy)-2-(2-(4′-fluoro-2′-methyl-[1,1′-biphenyl]-3-yl)-7-(8-fluoro-5-methylchroman-6-yl)-5-methylpyrazolo[1,5-a]pyrimidin-6-yl)acetic acid] | < 0.1 µM | – |
| COc1ccc(-c2c(C(OC(C)(C)C)C(=O)O)c(C)nc3cc(-c4ccccc4)nn23)cc1 (stereo not drawn) [Example 32] | > 1 µM | – |
| Cc1nc2cc(-c3ccccc3)nn2c(-c2cc3ccccc3s2)c1C(OC(C)(C)C)C(=O)O (stereo not drawn) [Example 67] | > 1 µM | – |
| Cc1ccc(-c2c([C@H](OC(C)(C)C)C(=O)O)c(C)nc3cc(-c4cccc(Cl)c4)nn23)cc1 [Example 148, (S)-2-(tert-Butoxy)-2-(2-(3-chlorophenyl)-5-methyl-7-(p-tolyl)pyrazolo[1,5-a]pyrimidin-6-yl)acetic acid] | 0.1 to 1 µM | 0.88 µM |
| Cc1nc2c(C)c(-c3ccccc3)nn2c(-c2cc(F)c3c(c2C)CCCO3)c1[C@H](OC(C)(C)C)C(=O)O [Example 163, (2S)-2-(tert-Butoxy)-2-(7-(8-fluoro-5-methylchroman-6-yl)-3,5-dimethyl-2-phenylpyrazolo[1,5-a]pyrimidin-6-yl)acetic acid] | < 0.1 µM | 0.2 µM |
| Cc1nc2cc(-c3ccccc3)nn2c(-c2cc(F)c3c(c2C)CCCO3)c1[C@@H](OC(C)(C)C)C(=O)O [Example 40, (2R)-2-tert-butoxy-2-(7-(8-fluoro-5-methylchroman-6-yl)-5-methyl-2-phenylpyrazolo[1,5-a]pyrimidin-6-yl)acetic acid] | > 1 µM | – |
| Cc1nc2cc(-c3ccccc3)nn2c(-c2cc3ccccc3n2C)c1C(OC(C)(C)C)C(=O)O (stereo not drawn) [Example 48] | > 1 µM | – |
| CCC(C)c1ccc(-c2c(C(OC(C)(C)C)C(=O)O)c(C)nc3cc(-c4ccccc4)nn23)cc1 (stereo not drawn) [Example 49] | > 1 µM | – |
